“And” between values parts separate entries of the source, which are not always exact repeats. Identical values can stand only once.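 Interpolation was linear, between the two tested concentrations surrounding the appropriate level; five concentrations were tested over 48 hours in 96-well plates. The concentration for 50% growth inhibition is given as GI50. At the TGI there is no net growth.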
Columns and labels:
Assay in all cases: NCI-60 cell line screen, 48 h
HT29 colon = test system: HT29 colon
TK-10 renal = test system: TK-10 renal
COLO 205 colon = test system: COLO 205 colon
MOLT-4 leukemia = test system: MOLT-4 leukemia
RXF 393 renal = test system: RXF 393 renal
SR leukemia = test system: SR leukemia
LOX IMVI melanoma = test system: LOX IMVI melanoma
SNB-75 CNS = test system: SNB-75 CNS
U251 CNS = test system: U251 CNS
HS 578T breast = test system: HS 578T breast

| Compound | GI50 (HT29 colon) | TGI (HT29 colon) | GI50 (TK-10 renal) | TGI (TK-10 renal) | GI50 (COLO 205 colon) | TGI (COLO 205 colon) | GI50 (MOLT-4 leukemia) [µM] | TGI (MOLT-4 leukemia) | GI50 (RXF 393 renal) | TGI (RXF 393 renal) | GI50 (SR leukemia) | TGI (SR leukemia) | GI50 (LOX IMVI melanoma) [µM] | TGI (LOX IMVI melanoma) | GI50 (SNB-75 CNS) | TGI (SNB-75 CNS) | GI50 (U251 CNS) | TGI (U251 CNS) | GI50 (HS 578T breast) | TGI (HS 578T breast) |
| --- | --- | --- | --- | --- | --- | --- | --- | --- | --- | --- | --- | --- | --- | --- | --- | --- | --- | --- | --- | --- |
| CN(CCOc1ccc(C#N)cc1)CCOc1ccc(C#N)cc1 | > 100 µM | > 100 µM | 28.7 µM | > 100 µM | > 100 µM | > 100 µM | 15.1 | 68.7 µM | 46.8 µM | > 100 µM | 5.21 µM | 61 µM | > 100 | > 100 µM | > 100 µM | > 100 µM | 81.4 µM | > 100 µM | 13.8 µM | > 100 µM |
| COc1ccc2c(c1)OC(N(C(C)=O)C(C)=O)=C(C#N)C2c1ccc(F)cc1 (stereo unspecified) | 2.55 µM | 18 µM | 17.5 µM | > 100 µM | 2.2 µM | 7.26 µM | 2.66 | > 100 µM | 1.77 µM | 9.63 µM | 0.653 µM | > 100 µM | 3.26 | > 100 µM | 1.28 µM | > 100 µM | 1.82 µM | 54.8 µM | 5.19 µM | > 100 µM |
| Nc1nc2c(c(=O)[nH]1)CN(c1ccc(S(N)(=O)=O)cc1)CN2 | – | > 100 µM | – | > 100 µM | – | > 100 µM | – | > 100 µM | – | – | – | > 100 µM | – | > 100 µM | – | – | – | > 100 µM | – | > 100 µM |
| CC1C(=O)C(C)C(c2ccccc2)N(N=O)C1c1ccccc1 (stereo unspecified) | – | > 833 µM | – | 640 µM | – | > 674 µM | – | > 1000 µM | 49.6 µM | > 68.4 µM and 171 µM | – | > 1000 µM | – | > 783 µM | 27.2 µM | 64.7 µM and 80.6 µM | 131 µM | > 92.4 µM and 397 µM | 28.6 µM | 186 µM |
| COc1ccc2c3c(c(=O)n(C)c2c1OC)C=CC(C)(C)O3 | – | 72.7 µM | – | > 100 µM | – | 40.2 µM | – | 54.7 µM | – | > 100 µM | – | 24.9 µM | – | > 100 µM | – | 48.2 µM | – | > 100 µM | – | 78.4 µM |
| Fc1ccc2[nH]c3c(NCCCN4CCOCC4)ncnc3c2c1 | 29 µM | > 100 µM | 66.4 µM | > 100 µM | 20.7 µM | 42.4 µM | 50.7 | > 100 µM | 34.5 µM | > 100 µM | 28.8 µM | > 100 µM | 30.7 | > 100 µM | 37.5 µM | > 100 µM | 48.8 µM | > 100 µM | 41.9 µM | > 100 µM |
| CCCCn1cnc2c(SC)ncnc21 | – | > 100 µM | – | > 100 µM | – | > 100 µM | – | > 100 µM | – | > 100 µM | – | 94.4 µM | – | > 100 µM | – | > 100 µM | – | > 100 µM | – | > 100 µM |
| OCc1ccc(-c2nn(Cc3ccccc3)c3ccccc23)o1 | 15 µM and 32.8 µM | 32.2 µM and > 100 µM | 0.253 µM and 0.489 µM | 1.02 µM and 3.61 µM | 8.05 µM and 5.73 µM | 26.2 µM and 21.7 µM | – | 62.2 µM and 37.4 µM | 7.94 µM and 14.8 µM | 30.7 µM and 38 µM | 12 µM and 4.48 µM | 45.2 µM and 39.6 µM | 14.6 | 29.8 µM and 27.7 µM | 11.7 µM and > 100 µM | 47.2 µM and > 100 µM | 8.07 µM and 12.4 µM | 28.5 µM and > 47.6 µM | 17.8 µM and 15.9 µM | > 69.9 µM and 42.4 µM |
| COc1cc[nH]c1/C=C1\C(=O)Nc2ccc(F)c(I)c21 | > 25 µM | > 25 µM | > 25 µM | > 25 µM | > 25 µM | > 25 µM | > 25 | > 25 µM | > 25 µM | > 25 µM | > 25 µM | > 25 µM | > 25 | > 25 µM | > 25 µM | > 25 µM | > 25 µM | > 25 µM | > 25 µM | > 25 µM |
| Clc1nc(Cl)c2c(ncn2C/C=C\Cn2cnc3c(Cl)nc(Cl)nc32)n1 | 1.4 µM | 2.73 µM | 1.85 µM | 3.45 µM | 1.46 µM | 3.01 µM | 1.42 | 3.25 µM | 0.351 µM | 0.906 µM | 0.218 µM | 0.813 µM | 1.36 | 2.85 µM | 2.19 µM | 6.68 µM | 1.85 µM | 3.91 µM | 1.44 µM | 5.36 µM |
| Cn1ccnc1C(=O)/C=C/c1ccc(CC(=O)Nc2ccccc2)cc1 | 2.4 µM | 6.82 µM | 7.44 µM | 19.9 µM | 3.77 µM | 9.39 µM | 4.3 | > 25 µM | 3.86 µM | 7.99 µM | 1.16 µM | 18.9 µM | 1.03 | 4.27 µM | > 25 µM | > 25 µM | 1.57 µM | 5.27 µM | 14.2 µM | > 25 µM |
| Nc1cc(N)c(N)cc1N | 2.42 µM | 4.86 µM | 3.68 µM | 14.5 µM | 1.81 µM | 3.43 µM | 3.14 | 28.6 µM | 1.73 µM | 3.19 µM | 2.56 µM | 7.66 µM | 1.82 | 3.75 µM | 1.47 µM | 2.87 µM | 1.82 µM | 3.75 µM | 2.01 µM | 5.37 µM |
| Fc1cccc(COc2ccc(Nc3ncnc4cc(-c5ccc[nH]5)sc34)cc2Cl)c1 | 7.47 µM | > 20.6 µM | 0.482 µM | 2.64 µM | 5.47 µM | 17.5 µM | 2.59 | > 25 µM | 2.17 µM | 6.62 µM | 13.6 µM | > 25 µM | 8.04 | > 22.4 µM | 1.19 µM | 6.35 µM | 3.51 µM | 17.5 µM | 4.53 µM | 21.2 µM |
| CC(C)(C)c1ccc(S(=O)(=O)N[C@H]2CC[C@H]3[C@@H]4CCc5cc(OS(=O)(=O)O)ccc5[C@H]4CC[C@]23C)cc1 | 2.19 µM | 4.57 µM | 3.69 µM | 12.4 µM | 1.83 µM | 3.29 µM | 2.65 | 9.55 µM | 1.6 µM | 3.49 µM | 2.45 µM | 7.02 µM | 1.7 | 3.11 µM | 2.03 µM | 6.11 µM | 1.68 µM | 3.34 µM | 2.69 µM | 7.27 µM |

From PubChem BioAssay (NCI)
